Columns and labels:
Eimeria tenella [1] = test: Protozoan (sporozoite) direct killing ability, Eimeria tenella; format: cell-based; conditions: Table 15, method similar to Example 2-1
[2] = tested on: RAW264.7(Mouse macrophage cell); test: Cytotoxicity, MTS analysis, RAW264.7; conditions: 3.1~500 ppm/well, 14 hours + 2 hours MTS, vs 5% DMSO treatment group
Source text: (§1) In the present example, using MTS analysis method (3-(4,5-[…])-5-(3-carboxymethoxyphenyl)-2-(4-sulfophenyl)-2H-tetrazolium, promega, USA), an effect on survival of cells of the mangosteen extract was investigated.
(§2) The cell lines utilized in cytotoxicity evaluation were (1) MDBK(Madin-Darby Bovine Kidney Epithelial Cells) and (2) RAW264.7(Mouse macrophage cell), and all of them were purchased from ATCC and used.
(§3) Each cell was aliquoted at a concentration of 1×10^5 cell/well in a 96-well cell culture plate, and cultured at 37° C. for 24 hours, and then each material (mangosteen extract, xanthone, alpha-mangostin and epicatechin) was treated by concentration (3.1˜500 ppm/well) and cultured at a temperature of 37° C.

Eimeria tenella [3] = test: Protozoan (sporozoite) direct killing ability, Eimeria tenella; format: cell-based; conditions: for Eimeria tenella protozoal death rate: Table 12 comparison with individual components; for Eimeria tenella protozoal death rate (%): compared to PBS-treated negative control group; for Minimum concentration for killing 100% protozoa (ppm), Eimeria tenella: tested 1 to 500 ppm
Description: (§4) In the present example, protozoan (sporozoite) direct killing ability evaluation was conducted against 3 representative Eimeria kinds known to be infected in most farms (E. tenella, E. acervulina, E. maxima).
(§5) A certain amount of oocysts of each protozoan was put in a tube containing glass beads and pulverized, and then to remove the crushed oocyst cell wall and other debris, internal sporocysts were purified using the percoll density gradient, and washed with PBS solution. A reagent comprising sodium taurocholic acid (Sigma aldrich, USA) and trypsin (Gibco, USA), respectively, was treated to sporocysts of Eimeria tenella, Eimeria acervulina and Eimeria maxima for excystation and they were incubated, and then they were washed with PBS solution once and protozoa were obtained.
(§6) After reacting the mangosteen pericarp extract, epicatechin, alpha-mangostin, xanthone and anticoccidial agents, salinomycin and diclazuril (hereinafter, material) with 3 kinds of Eimeria protozoa at various concentrations of 1 to 500 ppm, respectively, only alive protozoa (sporozoites) were counted through microscopic observation. Then, the death rate (%) of the protozoa when each material was treated compared to the PBS-treated negative control group was calculated and shown in Table 8 to Table 10 and Table 12, respectively, and the minimum concentration which directly killed the protozoa by 100% was shown in Table 11 below.

[4] = tested on: MDBK(Madin-Darby Bovine Kidney Epithelial Cells); test: Cytotoxicity, MTS analysis, MDBK; conditions: 3.1~500 ppm/well, 14 hours + 2 hours MTS, vs 5% DMSO treatment group
Source text: as §1, §2, §3

Eimeria maxima = test: Protozoan (sporozoite) direct killing ability, Eimeria maxima; format: cell-based; conditions: for Eimeria maxima protozoal death rate (%): compared to PBS-treated negative control group; for Minimum concentration for killing 100% protozoa (ppm), Eimeria maxima: tested 1 to 500 ppm
Description: as §4, §5, §6

Eimeria acervulina = test: Protozoan (sporozoite) direct killing ability, Eimeria acervulina; format: cell-based; conditions: for Eimeria acervulina protozoal death rate (%): compared to PBS-treated negative control group; for Minimum concentration for killing 100% protozoa (ppm), Eimeria acervulina: tested 1 to 500 ppm
Description: as §4, §5, §6

[5] = Broiler growth effect (daily weight gain) due to intake in feed; format: in vivo, Ross broilers; conditions: formulated feed 60 ppm for 7 days
Description: (§7) An efficacy evaluation test was performed in an animal experiment facility in Gyeongsangnam-do, South Korea. One-day-old female Ross broilers were individually weighed and randomly divided into groups to use in an experiment. Matters and conditions for experimental design were described in Table 16.
(§8) A breeding farm was managed according to the Korean poultry breeding management guidelines. Cages and the breeding farm were cleaned and disinfected before starting the test. The temperature of […] and the humidity of 40 to 50% of the breeding farm were maintained, and it was continuously monitored.
(§9) For the feed, Korea Feed A1-choi product was used, and each material (salinomycin (Cheil Bio Cheilsalino-60 product), xanthone (Sigma Aldrich X600 product), and the mangosteen extract prepared in Example 1-2 above) was added to the feed, respectively, at a concentration described in Table 17 below to be self-mixed. Antibiotics and supplements were not used in general feed and mixed feed, and no anticoccidial agent other than each material was added. Broilers were fed ad libitum throughout the experiment period. After putting 20 1-day-age broilers in cages randomly placed for each of the control group or test group and breeding, general feed was fed for 7 days, and then the mixed feed prepared above was ingested by dividing by control group or test group. The feed formulation administered to the control group (negative control group or positive control group) and test group was described in Table 17 below.
The body weight before feeding and on the 7th day after feeding the feed of Table 16 above into individuals was measured, and the difference was divided by the number of days to calculate the daily weight gain (ADG, g/d), and the result was shown in Table 18. For comparison between 6 treatment groups, Duncan post-test multiple comparison method was used, and statistical significance was verified using a SAS statistical program, and the result was shown in Table 18.

Eimeria tenella [6] = test: In vivo anticoccidial efficacy evaluation in broilers challenge-inoculated with Eimeria tenella; parameters: species or system Ross broilers
Description: as §7, with “An in vivo anticoccidial” for “An”, “2.” for “16.”
as §8
as §9, with “Al-choi” for “A1-choi”, “3” for “17”, “group.” for “group. The feed formulation administered to the control group (negative control group or positive control group) and test group was described in Table 17 below.”
The feed formulation administered to the control group (negative control group or positive control group) and test group and whether coccidiosis was induced by Eimeria tenella were described in Table 3 below. 20 1-day-old broilers were put in a cage randomly arranged for each test group, and after 7 days of feeding the general feed, the formulated feed as described in Table 3 was divided into each test group and ingested.
14-day-old broilers were orally inoculated with 10,000 oocysts (90% sporulated Eimeria tenella oocysts) per individual to induce coccidiosis.
The anticoccidial efficacy by test group designed in Example 1-3 above was shown as an anticoccidial index (ACI), and the anticoccidial index was calculated by Equation 2 below. The ACI score is out of 200 points, and the higher the ACI score, the more excellent the anticoccidial ability, and when it is 120 points or more to less than 140 points, it is determined that it is effective as an anticoccidial material, and when it is 140 points or more to less than 160 points, it is determined that it is excellent as an anticoccidial material, and when it is 160 points or more, it is determined that the anticoccidial effect is very excellent. (Luis Miguel De Pablos et al., Anticoccidial activity of maslinic acid against infection with Eimeria tenella in chickens, Parasitol Res, 2010)
Anticoccidial index (ACI)=(survival rate after challenge inoculation (%))+(daily weight gain compared to negative control group (RWG, %))−(lesion score×10)−(fecal oocyst excretion amount index) (Equation 2)
1) Survival rate: the number of dead individuals was recorded daily, and post mortem autopsy was performed to determine a cause of mortality, and the number of individuals who died due to causes other than coccidiosis was excluded. The survival rate (%) up to the 8th day after challenge inoculation was used for anticoccidial index calculation.
2) Daily weight gain: body weight was measured for each cage before challenge inoculation with a protozoan into an individual and at the 7th day after challenge inoculation, and the difference was divided by the number of days to calculate the daily weight gain (ADG, g/d). ‘Daily weight gain compared to the negative control group (RWG, %)’which was calculated by dividing the daily weight gain (ADG, average daily gain; g/d) of each experimental group by the weight gain (ADG, g/d) of the non-infected negative control group and multiplying by 100 was used for anticoccidial index calculation. […]

## COc1c(O)cc2oc3cc(O)c(CC=C(C)C)c(O)c3c(=O)c2c1CC=C(C)C [Alpha-mangostin, alpha-mangostin]
Eimeria tenella [1]
  Minimum concentrataion of killing protozoa 100% (ppm): ≥31.3 ppm
[2]
  Minimum concentrataion of cytotoxicity at which cells of 50% or more survive (ppm): ≥15.6 ppm
Eimeria tenella [3]; 3.9 ppm
  Eimeria tenella protozoal death rate: 23.3%
Eimeria tenella [3]; 7.8 ppm
  Eimeria tenella protozoal death rate: 50%
Eimeria tenella [3]; 15.6 ppm
  Eimeria tenella protozoal death rate: 93.3%
[4]
  Minimum concentrataion of cytotoxicity at which cells of 50% or more survive (ppm): ≥7.8 ppm

## N#CC(c1ccc(Cl)cc1)c1c(Cl)cc(-n2ncc(=O)[nH]c2=O)cc1Cl (centres unmarked) [Diclazuril, diclazuril]
Eimeria maxima; 1 ppm
  Eimeria maxima protozoal death rate (%): 0%
Eimeria maxima; 5 ppm
  Eimeria maxima protozoal death rate (%): 0%
Eimeria maxima; 10 ppm
  Eimeria maxima protozoal death rate (%): 0%
Eimeria maxima; 50 ppm
  Eimeria maxima protozoal death rate (%): 0%
Eimeria maxima; 100 ppm
  Eimeria maxima protozoal death rate (%): 0%
Eimeria maxima; 125 ppm
  Eimeria maxima protozoal death rate (%): 0%
Eimeria maxima; 250 ppm
  Eimeria maxima protozoal death rate (%): 16%
Eimeria maxima; 500 ppm
  Eimeria maxima protozoal death rate (%): 30%
Eimeria maxima
  Minimum concentration for killing 100% protozoa (ppm), Eimeria maxima: >500 ppm
Eimeria tenella [3]; 1 ppm
  Eimeria tenella protozoal death rate (%): 0%
Eimeria tenella [3]; 5 ppm
  Eimeria tenella protozoal death rate (%): 0%
Eimeria tenella [3]; 10 ppm
  Eimeria tenella protozoal death rate (%): 0%
Eimeria tenella [3]; 50 ppm
  Eimeria tenella protozoal death rate (%): 0%
Eimeria tenella [3]; 100 ppm
  Eimeria tenella protozoal death rate (%): 0%
Eimeria tenella [3]; 125 ppm
  Eimeria tenella protozoal death rate (%): 0%
Eimeria tenella [3]; 250 ppm
  Eimeria tenella protozoal death rate (%): 35%
Eimeria tenella [3]; 500 ppm
  Eimeria tenella protozoal death rate (%): 44%
Eimeria tenella [3]
  Minimum concentration for killing 100% protozoa (ppm), Eimeria tenella: >500 ppm
Eimeria acervulina; 1 ppm
  Eimeria acervulina protozoal death rate (%): 0%
Eimeria acervulina; 5 ppm
  Eimeria acervulina protozoal death rate (%): 0%
Eimeria acervulina; 10 ppm
  Eimeria acervulina protozoal death rate (%): 0%
Eimeria acervulina; 50 ppm
  Eimeria acervulina protozoal death rate (%): 0%
Eimeria acervulina; 100 ppm
  Eimeria acervulina protozoal death rate (%): 0%
Eimeria acervulina; 125 ppm
  Eimeria acervulina protozoal death rate (%): 23%
Eimeria acervulina; 250 ppm
  Eimeria acervulina protozoal death rate (%): 12%
Eimeria acervulina; 500 ppm
  Eimeria acervulina protozoal death rate (%): 44%
Eimeria acervulina
  Minimum concentration for killing 100% protozoa (ppm), Eimeria acervulina: 500 ppm

## Oc1cc(O)c2c(c1)O[C@H](c1ccc(O)c(O)c1)[C@H](O)C2 [Epicatechin, epicatechin]
Eimeria tenella [1]
  Minimum concentrataion of killing protozoa 100% (ppm): ≥500 ppm
Eimeria tenella [3]; 3.9 ppm
  Eimeria tenella protozoal death rate: 0%
Eimeria tenella [3]; 7.8 ppm
  Eimeria tenella protozoal death rate: 0%
Eimeria tenella [3]; 15.6 ppm
  Eimeria tenella protozoal death rate: 0%

## CC[C@@H](C(=O)[C@@H](C)[C@@H](O)[C@H](C)[C@@H]1O[C@@H]([C@@H](CC)C(=O)O)CC[C@@H]1C)[C@H]1O[C@]2(C=C[C@@H](O)[C@]3(CC[C@@](C)([C@H]4CC[C@](O)(CC)[C@H](C)O4)O3)O2)[C@H](C)C[C@@H]1C [Salinomycin, salinomycin]
[5]
  Daily weight gain (ADG): 46.86 g/day
  End-initial body weight (7 days, g): 328 g
[5]; non-infected broilers
  End body weight: 526 g
Eimeria maxima; 1 ppm
  Eimeria maxima protozoal death rate (%): 0%
Eimeria maxima; 5 ppm
  Eimeria maxima protozoal death rate (%): 0%
Eimeria maxima; 10 ppm
  Eimeria maxima protozoal death rate (%): 0%
Eimeria maxima; 50 ppm
  Eimeria maxima protozoal death rate (%): 0%
Eimeria maxima; 100 ppm
  Eimeria maxima protozoal death rate (%): 59%
Eimeria maxima; 125 ppm
  Eimeria maxima protozoal death rate (%): 65%
Eimeria maxima; 250 ppm
  Eimeria maxima protozoal death rate (%): 97%
Eimeria maxima; 500 ppm
  Eimeria maxima protozoal death rate (%): 100%
Eimeria maxima
  Minimum concentration for killing 100% protozoa (ppm), Eimeria maxima: 500 ppm
Eimeria tenella [6]; formulated feed 60 ppm from day 7, female Ross broilers
  Intermediate body weight (14-day-old, before challenge inoculation): 455.9
Eimeria tenella [6]; formulated feed 60 ppm, 8th day after challenge inoculation, scale of 0-4
  Appendix lesion score: 2.7
Eimeria tenella [6]; formulated feed 60 ppm, 10,000 E. tenella oocysts oral at 14 days
  End body weight (21-day-old, on the 7th day of challenge inoculation): 917.6
Eimeria tenella [6]; formulated feed 60 ppm, E. tenella infected broilers
  Day 14~Day 21 ADG (daily weight gain): 62.46 g/day
Eimeria tenella [6]; formulated feed 60 ppm, Equation 2, out of 200 points
  Anticoccidial index (ACI): 141
Eimeria tenella [6]; formulated feed 60 ppm, feces of 6~8th day of challenge inoculation, McMaster chamber
  Oocyst excretion amount/gram: 1.30E+08 /gram
Eimeria tenella [6]; formulated feed 60 ppm, relative to non-infected negative control group
  RWG (daily weight gain compared to the negative control group): 94%
Eimeria tenella [3]; 1 ppm
  Eimeria tenella protozoal death rate (%): 0%
Eimeria tenella [3]; 5 ppm
  Eimeria tenella protozoal death rate (%): 0%
Eimeria tenella [3]; 10 ppm
  Eimeria tenella protozoal death rate (%): 0%
Eimeria tenella [3]; 50 ppm
  Eimeria tenella protozoal death rate (%): 0%
Eimeria tenella [3]; 100 ppm
  Eimeria tenella protozoal death rate (%): 46%
Eimeria tenella [3]; 125 ppm
  Eimeria tenella protozoal death rate (%): 74%
Eimeria tenella [3]; 250 ppm
  Eimeria tenella protozoal death rate (%): 100%
Eimeria tenella [3]; 500 ppm
  Eimeria tenella protozoal death rate (%): 100%
Eimeria tenella [3]
  Minimum concentration for killing 100% protozoa (ppm), Eimeria tenella: 500 ppm
Eimeria acervulina; 1 ppm
  Eimeria acervulina protozoal death rate (%): 0%
Eimeria acervulina; 5 ppm
  Eimeria acervulina protozoal death rate (%): 0%
Eimeria acervulina; 10 ppm
  Eimeria acervulina protozoal death rate (%): 0%
Eimeria acervulina; 50 ppm
  Eimeria acervulina protozoal death rate (%): 0%
Eimeria acervulina; 100 ppm
  Eimeria acervulina protozoal death rate (%): 60%
Eimeria acervulina; 125 ppm
  Eimeria acervulina protozoal death rate (%): 73%
Eimeria acervulina; 250 ppm
  Eimeria acervulina protozoal death rate (%): 100%
Eimeria acervulina; 500 ppm
  Eimeria acervulina protozoal death rate (%): 100%
Eimeria acervulina
  Minimum concentration for killing 100% protozoa (ppm), Eimeria acervulina: 250 ppm
